# Patent publication US20240199582A1, “INHIBITORS OF POLY(ADP-RIBOSE) POLYMERASE” (RHIZEN PHARMACEUTICALS AG, priority 2021, published 2024)
# Experiments:
# [1] = test system: BRCA mutant and non-BRCA mutant cancer cell lines; experiment: Cell proliferation assay to determine GI50 in BRCA mutant and non-BRCA mutant cancer cell lines; format: cell-based; settings: range over BRCA mutant and non-BRCA mutant cancer cell lines; treatment 72, 120 or 144 hours
# Procedure: On Day “0” the test cells were plated in 100 μL/well in complete media in a 96-well plate in triplicates and plates were incubated at 37° C. and 5% CO2. On Day 1, 10 μL of MTT (5 mg/ml) were added to the column designated for Day “0”. It was mixed well and incubated at 37° C. and 5% CO2 for 3.5 h. Cells were pelleted down at 4000 rpm for 10 minutes. Media was aspirated out and 150 μL of DMSO were added to the cells and mixed by pipetting to dissolve the crystals. Plate was read at A560 nm and A640. DMSO dilutions of the inhibitors (Compound 1 or Compound 1D) were diluted to 3× of required concentration in growth medium. Cells in each well were treated with 50 μL of complete media containing inhibitor. DMSO concentration in the well was 0.1%. Plates were incubated at 37° C. and 5% CO2 as required for 144 hours. 15 μL of MTT (5 mg/mL) was added to the wells. Plates were incubated at 37° C. and 5% CO2 for 3.5 hours. After incubation, cells are pelleted down at 4000 rpm for 10 min. Media was aspirated and 150 μL of DMSO per well were added to dissolve the formazan crystals. Plate was read at A560 nm and A640. […]
# Cancer cell lines were plated at desired density in their respective complete media and incubated overnight at 37° C. and 5% CO2. […] At the end of the treatment period, cell viability was measured and GI50 values were calculated.
# [2] = Rat pharmacokinetics (oral and IV), plasma by LC-MS/MS; format: in vivo, rats (Wistar rat strains); settings: for AUC(0-t): Compound 1 prepared by Method 2, Compound 1D prepared by Method 2, read-out: AUC0-24
# Procedure: The oral bioavailability of Compound 1 and its salts were evaluated in rats. The protocol for the pharmacokinetic (PK) studies in rats is provided below.
# Formulation 1: Polysorbate 80 (10% v/v)+Methyl Cellulose (MC) (0.5% w/v) • 1. 200 mg^#of the test compound was weighed and transferred into a mortar. • 2. 1.0 mL of polysorbate 80 (10% v/v of the final suspension) was added to the mortar and the test item was triturated to afford a smooth paste. • 3. 9.0 mL of 0.5% methyl cellulose (4000 cps) was added and triturated to afford a fine suspension. • 4. The final strength of the formulation was 20.0 mg/mL. #For salts of the test compound in order to achieve the equivalent dose level on a molar basis as the free base, a correction factor was used based on the salt and purity. Formulation 2: Propylene Glycol (40% v/v)+60% Methyl Cellulose (MC) (0.5% w/v) • 1. 1400 mg #of the test compound was weighed and transferred into a glass beaker. • 2. 28.0 mL of propylene glycol (1,2-popanediol) (40% v/v of the final volume) was added to the glass beaker and sonicated for 20 min to dissolve. (strength is 50 mg/mL) • 3. At the time of dosing, 20 mL of propylene glycol (50.0 mg/mL) and 30.0 mL of 0.5% methyl cellulose (4000 cps) were mixed with continuous stirring to afford a clear solution • 4. The final strength of the formulation was 20.0 mg/mL. • #For salts of the test compound in order to achieve the equivalent dose level on a molar basis as the free base, a correction factor was used based on the salt and purity.
# (§1) Protocol: All animals (mice (BALB/c mice), rats (Wistar rat strains), and dogs (beagle, non-naïve)) were fasted overnight (12 hours) before dosing and continued till 4.0 hours after administration of test item. The blood samples (all collections each of 150 μL from each animal) were collected according to the sampling schedule from orbital sinus or jugular vein into the micro centrifuge tube containing dipotassium EDTA as an anticoagulant. Blood samples were centrifuged immediately with a speed of 4000 RPM for 10 min at 4° C. and separated plasma samples were frozen at below −80° C. and stored until analysis. The plasma concentrations of test item in all samples were analysed by LC-MS/MS method Pharmacokinetic parameters viz. Cmax, AUC0-t, AUC0-∞, Tmax, and t½, were estimated by using WinNonlin software.
# [3] = Mice pharmacokinetics (IV and oral), plasma by LC-MS/MS; format: in vivo, mice (BALB/c mice)
# Procedure: as §1
# [4] = Dog pharmacokinetics (IV and oral), plasma by LC-MS/MS; format: in vivo, dogs (beagle, non-naïve)
# Procedure: as §1
# [5] = Wistar, plasma, oral, 100 mg/kg, Formulation 1: Polysorbate 80 (10% v/v) + MC (0.5% w/v), Compound 1 prepared by Method 2, Compound 1D prepared by Method 2
# [6] = Wistar, plasma, oral, 100 mg/kg, Formulation 1: Polysorbate 80 (10% v/v) + MC (0.5% w/v)
# [7] = Wistar, plasma, oral, 100 mg/kg, Formulation 1: Polysorbate 80 (10% v/v) + MC (0.5% w/v), Compound 1 prepared by Method 2, Compound 1D prepared by Method 2, read-out: Tmax
# [8] = oral, 100 mg/kg, Formulation 1: Polysorbate 80 (10% v/v) + MC (0.5% w/v), Compound 1 prepared by Method 2, Compound 1D prepared by Method 2
# [9] = oral, 100 mg/kg, Formulation 1: Polysorbate 80 (10% v/v) + MC (0.5% w/v), Compound 1 prepared by Method 2, Compound 1D prepared by Method 2, 100 mg/kg
# [10] = oral, 100 mg/kg, Formulation 1: Polysorbate 80 (10% v/v) + MC (0.5% w/v), Compound 1C prepared by Method 1
# [11] = oral, 100 mg/kg, Formulation 1: Polysorbate 80 (10% v/v) + MC (0.5% w/v), Compound 1C prepared by Method 2
# [12] = oral, 100 mg/kg, Formulation 2: PG (40% v/v) + 60% MC (0.5% w/v), Compound 1D prepared by Method 2
# [13] = oral, 100 mg/kg, Formulation 2: PG (40% v/v) + 60% MC (0.5% w/v), Compound 1D prepared by Method 3
compound,measurement,setting,value
"C[C@]1(O)C(=O)N(c2cncc(Cc3n[nH]c(=O)c4ccccc34)c2)c2ccccc21 [Compound 1, (R)-(+)-4-((5-(3-Hydroxy-3-methyl-2-oxoindolin-1-yl)pyridin-3-yl)methyl)phthalazin-1(2H)-one]",melting point,,110 to 113 °C
same,GI50,[1],0.043 to 19.8 µM
same,Cmax,[2]; [5],2.56 µM
same,AUC(0-t),[2]; [6],7.81 µM·h
same,Tmax,[2]; [7],30 min
"C[C@]1(O)C(=O)N(c2cncc(Cc3n[nH]c(=O)c4ccccc34)c2)c2ccccc21.Cl [Compound 1A, (R)-(+)-4-((5-(3-Hydroxy-3-methyl-2-oxoindolin-1-yl)pyridin-3-yl)methyl)phthalazin-1(2H)-one, hydrochloride]",melting point,,226 to 228 °C
same,Cmax,[2]; [5],4.38 µM
same,AUC(0-t),[2]; [6],23.3 µM·h
same,Tmax,[2]; [7],15 min
"C[C@]1(O)C(=O)N(c2cncc(Cc3n[nH]c(=O)c4ccccc34)c2)c2ccccc21.O=S(=O)(O)c1ccccc1 [Compound 1B, (R)-(+)-4-((5-(3-hydroxy-3-methyl-2-oxoindolin-1-yl)pyridin-3-yl)methyl)phthalazin-1(2H)-one, benzene sulfonate]",AUC0-24,[2]; [8],32.43 µM·h
same,Tmax,[2]; [8],30 min
same,Cmax,[2]; [9],17.2 µM
"C[C@]1(O)C(=O)N(c2cncc(Cc3n[nH]c(=O)c4ccccc34)c2)c2ccccc21.Cc1ccc(S(=O)(=O)O)cc1 [Compound 1C, (R)-(+)-4-((5-(3-hydroxy-3-methyl-2-oxoindolin-1-yl)pyridin-3-yl)methyl)phthalazin-1(2H)-one, 4-methylbenzene sulfonate]",AUC0-24,[2]; [10],39.98 µM·h
same,Cmax,[2]; [10],11.9 µM
same,Tmax,[2]; [10],30 min
same,AUC0-24,[2]; [11],23.09 µM·h
same,Cmax,[2]; [11],10.5 µM
same,Tmax,[2]; [11],15 min
"CS(=O)(=O)O.C[C@]1(O)C(=O)N(c2cncc(Cc3n[nH]c(=O)c4ccccc34)c2)c2ccccc21 [Compound 1D, (R)-(+)-4-((5-(3-Hydroxy-3-methyl-2-oxoindolin-1-yl)pyridin-3-yl)methyl)phthalazin-1(2H)-one, methane sulfonate]",AUC0-24,"[3]; IV, 1 mg/kg",1.12 µM·h
same,C0,"[3]; IV, 1 mg/kg",3.12 µM
same,Cmax,"[3]; IV, 1 mg/kg",2.87 µM
same,AUC0-24,"[3]; oral, 10 mg/kg",5.64 µM·h
same,Cmax,"[3]; oral, 10 mg/kg",7.62 µM
same,Tmax,"[3]; oral, 10 mg/kg",15 min
same,AUC0-24,"[4]; IV, 1 mg/kg",2.73 µM·h
same,C0,"[4]; IV, 1 mg/kg",4.11 µM
same,Cmax,"[4]; IV, 1 mg/kg",3.47 µM
same,AUC0-24,"[4]; oral, 20 mg/kg",57.05 µM·h
same,Cmax,"[4]; oral, 20 mg/kg",22.9 µM
same,Tmax,"[4]; oral, 20 mg/kg",30 min
same,AUC0-24,"[2]; IV, 1 mg/kg",1.18 µM·h
same,C0,"[2]; IV, 1 mg/kg",5.25 µM
same,Cmax,"[2]; IV, 1 mg/kg",4.47 µM
same,AUC0-24,"[2]; oral, 10 mg/kg",8.96 µM·h
same,Cmax,"[2]; oral, 10 mg/kg",8.43 µM
same,Tmax,"[2]; oral, 10 mg/kg",22.8 min
same,AUC0-24,[2]; [8],34.71 µM·h
same,Tmax,[2]; [8],15 min
same,Cmax,[2]; [9],13 µM
same,AUC0-24,[2]; [12],135.36 µM·h
same,Cmax,[2]; [12],55.6 µM
same,Tmax,[2]; [12],30 min
same,AUC0-24,[2]; [13],139.36 µM·h
same,Cmax,[2]; [13],53.7 µM
same,Tmax,[2]; [13],30 min
